From PubChem BioAssay AID248 (DTP/NCI, 2004)
“And” between values parts separate entries of the source, which are not always exact repeats. Identical values can stand only once. Toxic doses and inconclusive results are not listed. Cut-off read from the data, not from the text of the source: active = T/C of 150% or more; inactive = T/C below 125%.

Tested on: L1210 leukemia ip in BDF1 mice, survival T/C
Assay: NCI In Vivo Anticancer Drug Screen. Data for tumor model L1210 Leukemia (intraperitoneal) in B6D2F1 (BDF1) mice
Conditions: endpoint: mean survival time, higher = longer survival
Outline: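 Tumor was transplanted into mice, which were then dosed with test compound or vehicle alone. Survival was recorded for each group, and the treated figure was expressed relative to the control figure.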

[1] = dose: 100.0 mg/kg/injection, schedule: Q04DX003 (ip), vehicle: Klucel (hydroxypropylcellulose) (HPC)
[2] = dose: 200.0 mg/kg/injection, schedule: Q04DX003 (ip), vehicle: Klucel (hydroxypropylcellulose) (HPC)
[3] = dose: 400.0 mg/kg/injection, schedule: Q04DX003 (ip), vehicle: Klucel (hydroxypropylcellulose) (HPC)
[4] = dose: 100.0 mg/kg/injection, schedule: Q04DX002 (ip), vehicle: Klucel (hydroxypropylcellulose) (HPC)
[5] = dose: 200.0 mg/kg/injection, schedule: Q04DX002 (ip), vehicle: Klucel (hydroxypropylcellulose) (HPC)
[6] = dose: 400.0 mg/kg/injection, schedule: Q04DX002 (ip), vehicle: Klucel (hydroxypropylcellulose) (HPC)
[7] = dose: 100.0 mg/kg/injection, schedule: Q01DX001 (ip), vehicle: saline
[8] = dose: 200.0 mg/kg/injection, schedule: Q01DX001 (ip), vehicle: saline
[9] = dose: 50.0 mg/kg/injection, schedule: Q01DX001 (ip), vehicle: saline
[10] = dose: 100.0 mg/kg/injection, schedule: Q01DX009 (ip), vehicle: Klucel (hydroxypropylcellulose) (HPC)
[11] = dose: 100.0 mg/kg/injection, schedule: Q01DX001 (ip), vehicle: carboxymethylcellulose (CMC)
[12] = dose: 200.0 mg/kg/injection, schedule: Q01DX001 (ip), vehicle: carboxymethylcellulose (CMC)
[13] = dose: 400.0 mg/kg/injection, schedule: Q01DX001 (ip), vehicle: carboxymethylcellulose (CMC)

Measured: T/C

COC(=O)c1cc(SC)nc(SC)n1
inactive: [1] 90 % of control | [2] 111 % of control | [3] 101 % of control

Cc1nccn1-c1ccc(Cl)cc1N=Cc1ccc(N(CCCl)CCCl)cc1Cl
inactive: [4] 95 % of control | [5] 95 % of control | [6] 106 % of control

CNc1ncnc(Cl)c1N
inactive: dose: 100.0 mg/kg/injection, schedule: Q01DX001 (ip), vehicle: Klucel (hydroxypropylcellulose) (HPC) 103 % of control | dose: 200.0 mg/kg/injection, schedule: Q01DX001 (ip), vehicle: Klucel (hydroxypropylcellulose) (HPC) 107 % of control

Cc1ccc(C(=O)CC(=O)Nc2cc([N+](=O)[O-])ccc2OCCOc2ccc(C(C)(C)CC(C)(C)C)cc2)cc1
inactive: dose: 100.0 mg/kg/injection, schedule: Q01DX009 (ip), vehicle: saline sonified 100 % of control | [1] 112 % of control | dose: 200.0 mg/kg/injection, schedule: Q01DX009 (ip), vehicle: saline sonified 97 % of control | [2] 89 % of control | dose: 400.0 mg/kg/injection, schedule: Q01DX009 (ip), vehicle: saline sonified 87 % of control | [3] 94 % of control

NC1CC2C=CCC(C1)C2 (configuration not stated)
inactive: [7] 95 % of control | [8] 94 % of control

Cc1ccc(C)c(CNC(=O)C2CCCCC2C(=O)O)c1 (configuration not stated)
inactive: dose: 100.0 mg/kg/injection, schedule: Q01DX009 (ip), vehicle: saline with Tween-80 101 % of control | dose: 200.0 mg/kg/injection, schedule: Q01DX009 (ip), vehicle: saline with Tween-80 112 % of control | dose: 400.0 mg/kg/injection, schedule: Q01DX009 (ip), vehicle: saline with Tween-80 109 % of control

SC1CC[N-]CC1.SC1CC[N-]CC1.[Cl][Pt+2][Cl]
inactive: dose: 25.0 mg/kg/injection, schedule: Q01DX009 (ip), vehicle: water 96 % of control | dose: 50.0 mg/kg/injection, schedule: Q01DX009 (ip), vehicle: water 101 % of control | dose: 100.0 mg/kg/injection, schedule: Q01DX009 (ip), vehicle: water 96 % of control | dose: 100.0 mg/kg/injection, schedule: Q04DX003 (ip), vehicle: water 101 % of control | dose: 200.0 mg/kg/injection, schedule: Q01DX009 (ip), vehicle: water 98 % of control | dose: 200.0 mg/kg/injection, schedule: Q04DX003 (ip), vehicle: water 97 % of control

COP(=O)(O)Oc1ccccc1
inactive: dose: 87.5 mg/kg/injection, schedule: Q01DX009 (ip), vehicle: saline with Tween-80 100 % of control | dose: 175.0 mg/kg/injection, schedule: Q01DX009 (ip), vehicle: saline with Tween-80 100 % of control

O=NN(CCCCl)C(=O)NC1CCCCC1
inactive: dose: 12.5 mg/kg/injection, schedule: Q01DX001 (ip), vehicle: saline 103 % of control | dose: 25.0 mg/kg/injection, schedule: Q01DX001 (ip), vehicle: saline 108 % of control | [9] 103 % of control | [7] 103 % of control | [8] 102 % of control | dose: 300.0 mg/kg/injection, schedule: Q01DX001 (ip), vehicle: saline 106 % of control | dose: 400.0 mg/kg/injection, schedule: Q01DX001 (ip), vehicle: saline 110 % of control | dose: 500.0 mg/kg/injection, schedule: Q01DX001 (ip), vehicle: saline 100 % of control | dose: 600.0 mg/kg/injection, schedule: Q01DX001 (ip), vehicle: saline 106 % of control | dose: 800.0 mg/kg/injection, schedule: Q01DX001 (ip), vehicle: saline 112 % of control | dose: 1000.0 mg/kg/injection, schedule: Q01DX001 (ip), vehicle: saline 103 % of control

N#Cc1ccc(OCCCCCOc2ccc(C#N)cc2I)c(I)c1
inactive: dose: 25.0 mg/kg/injection, schedule: Q04DX002 (ip), vehicle: Klucel (hydroxypropylcellulose) (HPC) 100 % of control | dose: 50.0 mg/kg/injection, schedule: Q04DX002 (ip), vehicle: Klucel (hydroxypropylcellulose) (HPC) 100 % of control | [4] 95 % of control and 97 % of control | [5] 89 % of control | [6] 94 % of control

O=C(NC1CCCCC1)Sc1ccc(Cl)cc1
inactive: dose: 25.0 mg/kg/injection, schedule: Q01DX009 (ip), vehicle: Klucel (hydroxypropylcellulose) (HPC) 104 % of control | dose: 25.0 mg/kg/injection, schedule: Q04DX003 (ip), vehicle: Klucel (hydroxypropylcellulose) (HPC) 94 % of control | dose: 50.0 mg/kg/injection, schedule: Q01DX009 (ip), vehicle: Klucel (hydroxypropylcellulose) (HPC) 103 % of control | dose: 50.0 mg/kg/injection, schedule: Q04DX003 (ip), vehicle: Klucel (hydroxypropylcellulose) (HPC) 102 % of control | [10] 98 % of control | [1] 100 % of control and 108 % of control

CCC1CN2CCc3cc(OC)c(OC)cc3C2CC1CC1c2cc(OC)c(OC)cc2CCN1C(=O)C1CCCN1 (configuration not stated)
inactive: [9] 95 % of control | [7] 111 % of control | [8] 95 % of control

COC(=O)c1cc(C)cc(OC(=S)N(C)C)c1C
inactive: [11] 96 % of control | dose: 100.0 mg/kg/injection, schedule: Q01DX009 (ip), vehicle: carboxymethylcellulose (CMC) 103 % of control | [12] 93 % of control | dose: 200.0 mg/kg/injection, schedule: Q01DX009 (ip), vehicle: carboxymethylcellulose (CMC) 98 % of control | [13] 96 % of control | dose: 400.0 mg/kg/injection, schedule: Q01DX009 (ip), vehicle: carboxymethylcellulose (CMC) 93 % of control | dose: 800.0 mg/kg/injection, schedule: Q01DX009 (ip), vehicle: carboxymethylcellulose (CMC) 103 % of control

CSc1nc(N)nc2nc(C)cc(C)c12
inactive: dose: 100.0 mg/kg/injection, schedule: Q01DX Z (ip), vehicle: methylcellulose (MC) 110 % of control

CCOC(=O)C(=CN1CCCCC1)C(=O)OCC
inactive: dose: 100.0 mg/kg/injection, schedule: Q04DX003 (ip), vehicle: saline 98 % of control | dose: 200.0 mg/kg/injection, schedule: Q04DX003 (ip), vehicle: saline 101 % of control | dose: 400.0 mg/kg/injection, schedule: Q04DX003 (ip), vehicle: saline 95 % of control

CCCCN1C(=O)C(=O)N(c2ccccc2C(F)(F)F)C1=O
inactive: [10] 106 % of control and 88 % of control | [4] 94 % of control and 105 % of control | dose: 200.0 mg/kg/injection, schedule: Q01DX009 (ip), vehicle: Klucel (hydroxypropylcellulose) (HPC) 106 % of control | [5] 101 % of control and 90 % of control | dose: 400.0 mg/kg/injection, schedule: Q01DX009 (ip), vehicle: Klucel (hydroxypropylcellulose) (HPC) 107 % of control | [6] 94 % of control and 116 % of control

O=C(O)CSc1ccc([N+](=O)[O-])cn1
inactive: dose: 6.25 mg/kg/injection, schedule: Q01DX001 (ip), vehicle: carboxymethylcellulose (CMC) 108 % of control | dose: 12.5 mg/kg/injection, schedule: Q01DX001 (ip), vehicle: carboxymethylcellulose (CMC) 111 % of control | dose: 25.0 mg/kg/injection, schedule: Q01DX001 (ip), vehicle: carboxymethylcellulose (CMC) 104 % of control | dose: 37.5 mg/kg/injection, schedule: Q01DX001 (ip), vehicle: carboxymethylcellulose (CMC) 104 % of control | dose: 50.0 mg/kg/injection, schedule: Q01DX001 (ip), vehicle: carboxymethylcellulose (CMC) 115 % of control | [11] 101 % of control | [12] 103 % of control | [13] 101 % of control
